What was measured:
Assay type in all cases: cell-based
[1] = system: NCI-59 human cancer cell lines; assay: NCI-60 one-dose SRB screening, full panel and subpanels; conditions: for activity at 10 µM: Homo sapiens, mean over the full panel, 10 µM one dose, 48 h, SRB, read-out: growth percentage, Mean
Description: (§1) The structures of the synthesized compounds 6a–h, 12a–c, 11, 13a–c, and 14a–c were submitted to the National Cancer Institute’s Developmental Therapeutics Program (NCI-DTP), and all of them were selected for preliminary in vitro anticancer activity screening against NCI-59 human cancer cell lines at a concentration of 10 µM, using the sulforhodamine B (SRB) assay to determine the growth percentage and cell viability.
(§2) The in vitro NCI-60 cell line screening assay was conducted at the National Cancer Institute (NCI), Bethesda, USA against 59 cancer cell lines representing 9 types of cancers, as reported earlier. Briefly, the human cancer cell lines were grown in RPMI 1640 medium containing 5% fetal bovine serum and 2 mM L-glutamine and inoculated into 96-well microtiter plates in 100 μL (5000 to 40,000 cells/well). Then, the plates were incubated at 37 °C, 5% CO2, 95% air, and 100% relative humidity for 24 h. After that, two plates of each cell line were fixed in situ with TCA, to represent cell population at time zero (Tz). The tested compounds were dissolved in DMSO at 400-fold and added so that the final concentration became 10 μM. The plates were then incubated for an additional 48 h followed by the addition of cold TCA to terminate the assay in case of adherent cells. Then, the cells were fixed in situ by cold 50% (w/v) TCA (50 μL; final concentration, 10% TCA) and incubated for 1 h at 4 °C. After discarding the supernatant, the plates were washed 5 times with tap water and air dried. Sulforhodamine B (SRB) solution (100 μL) at 0.4% (w/v) in 1% HOAc was added to each well, and plates were incubated for 10 min. at rt. Then, washing with 1% acetic acid was conducted 5 times to remove the unbound dye followed by air drying. After that, 10 mM trizma base was added to solubilize the bound stain, and the absorbance was read on an automated plate reader at a wavelength of 515 nm. On the other hand, the methodology for suspension cells was the same except that 50 μL of 80% TCA (final concentration, 16% TCA) was gently added to terminate the assay by fixing settled cells at the bottom of the wells. Percentage growth inhibition (GI%) was calculated as follows:
(§3) Growth percentage=Ti (test growth in the presence of compound at 10 µM )−Tz (time zero)/C (control growth)−Tz (time zero)×100 for Ti ≥ Tz;
(§4) Growth percentage=Ti (test growth in the presence of compound at 10 µM )−Tz (time zero)/Tz (time zero)×100 for Ti < Tz.
(§5) where values of 100, 40, 0, −40, and −100 mean no GI, 60% GI, no net G, 40% lethality, and all cells are dead, respectively.
Data are expressed as a one-dose mean graph of growth percentages including the mean, delta, and range.

BT-549 = assay: NCI-60 one-dose SRB screening; conditions: Homo sapiens, BT-549, Breast Cancer, 10 µM one dose, 48 h, read-out: growth percentage
Description: as §1, §2, §3, §4, §5

MDA-MB-435 = assay: NCI-60 one-dose SRB screening; conditions: Homo sapiens, MDA-MB-435, Melanoma, 10 µM one dose, 48 h, read-out: growth percentage
Description: as §1, §2, §3, §4, §5

A549/ATCC = assay: NCI-60 one-dose SRB screening; conditions: Homo sapiens, Non-Small Cell Lung Cancer, 10 µM one dose, 48 h, read-out: growth percentage
Description: as §1, §2, §3, §4, §5

SN12C = assay: NCI-60 one-dose SRB screening; conditions: Homo sapiens, Renal Cancer, 10 µM one dose, 48 h, read-out: growth percentage
Description: as §1, §2, §3, §4, §5

OVCAR-4 = assay: NCI-60 one-dose SRB screening; conditions: Homo sapiens, OVCAR-4, Ovarian Cancer, 10 µM one dose, 48 h, read-out: growth percentage
Description: as §1, §2, §3, §4, §5

HL-60(TB) = assay: NCI-60 one-dose SRB screening; conditions: Homo sapiens, Leukemia, 10 µM one dose, 48 h, read-out: growth percentage
Description: as §1, §2, §3, §4, §5

NCI-H460 = assay: NCI-60 one-dose SRB screening; conditions: Homo sapiens, NCI-H460, Non-Small Cell Lung Cancer, 10 µM one dose, 48 h, read-out: growth percentage
Description: as §1, §2, §3, §4, §5

MDA-MB-468 = assay: NCI-60 one-dose SRB screening; conditions: Homo sapiens, MDA-MB-468, Breast Cancer, 10 µM one dose, 48 h, read-out: growth percentage
Description: as §1, §2, §3, §4, §5

SK-OV-3 = assay: NCI-60 one-dose SRB screening; conditions: Homo sapiens, SK-OV-3, Ovarian Cancer, 10 µM one dose, 48 h, read-out: growth percentage
Description: as §1, §2, §3, §4, §5

K-562 = assay: NCI-60 one-dose SRB screening; conditions: Homo sapiens, K562, K-562, Leukemia, 10 µM one dose, 48 h, read-out: growth percentage
Description: as §1, §2, §3, §4, §5

PC-3 = assay: NCI-60 one-dose SRB screening; conditions: Homo sapiens, PC-3, Prostate Cancer, 10 µM one dose, 48 h, read-out: growth percentage
Description: as §1, §2, §3, §4, §5

LOX IMVI = assay: NCI-60 one-dose SRB screening; conditions: Homo sapiens, Melanoma, 10 µM one dose, 48 h, read-out: growth percentage
Description: as §1, §2, §3, §4, §5

EKVX = assay: NCI-60 one-dose SRB screening; conditions: Homo sapiens, Non-Small Cell Lung Cancer, 10 µM one dose, 48 h, read-out: growth percentage
Description: as §1, §2, §3, §4, §5

CAKI-1 = assay: NCI-60 one-dose SRB screening; conditions: Homo sapiens, CAKI-1, Renal Cancer, 10 µM one dose, 48 h, read-out: growth percentage
Description: as §1, §2, §3, §4, §5

HOP-62 = assay: NCI-60 one-dose SRB screening; conditions: Homo sapiens, HOP-62, Non-Small Cell Lung Cancer, 10 µM one dose, 48 h, read-out: growth percentage
Description: as §1, §2, §3, §4, §5

SF-295 = assay: NCI-60 one-dose SRB screening; conditions: Homo sapiens, SF-295, CNS Cancer, 10 µM one dose, 48 h, read-out: growth percentage
Description: as §1, §2, §3, §4, §5

HCC-2998 = assay: NCI-60 one-dose SRB screening; conditions: Homo sapiens, HCC-2998, Colon Cancer, 10 µM one dose, 48 h, read-out: growth percentage
Description: as §1, §2, §3, §4, §5

HCT-116 = assay: NCI-60 one-dose SRB screening; conditions: Homo sapiens, HCT-116, Colon Cancer, 10 µM one dose, 48 h, read-out: growth percentage
Description: as §1, §2, §3, §4, §5

OVCAR-8 = assay: NCI-60 one-dose SRB screening; conditions: Homo sapiens, OVCAR-8, Ovarian Cancer, 10 µM one dose, 48 h, read-out: growth percentage
Description: as §1, §2, §3, §4, §5

HT29 = assay: NCI-60 one-dose SRB screening; conditions: Homo sapiens, HT-29, HT29, Colon Cancer, 10 µM one dose, 48 h, read-out: growth percentage
Description: as §1, §2, §3, §4, §5

Row | Structure (SMILES) | activity at 10 µM [1] [%] | activity at 10 µM (BT-549) [%] | activity at 10 µM (MDA-MB-435) [%] | activity at 10 µM (A549/ATCC) [%] | activity at 10 µM (SN12C) [%] | activity at 10 µM (OVCAR-4) [%] | activity at 10 µM (HL-60(TB)) [%] | activity at 10 µM (NCI-H460) [%] | activity at 10 µM (MDA-MB-468) [%] | activity at 10 µM (SK-OV-3) [%] | activity at 10 µM (K-562) [%] | activity at 10 µM (PC-3) [%] | activity at 10 µM (LOX IMVI) [%] | activity at 10 µM (EKVX) [%] | activity at 10 µM (CAKI-1) [%] | activity at 10 µM (HOP-62) [%] | activity at 10 µM (SF-295) [%] | activity at 10 µM (HCC-2998) [%] | activity at 10 µM (HCT-116) [%] | activity at 10 µM (OVCAR-8) [%] | further results
1 | Cc1nn(-c2ccc(Br)cc2)c2nc(C(F)(F)F)nc(Nc3ccc(NCc4c(-c5ccccc5)no[n+]4[O-])cc3)c12 [12c, 3-(((4-((1-(4-bromophenyl)-3-methyl-6-(trifluoromethyl)-1H-pyrazolo[3,4-d]pyrimidin-4-yl)amino)phenyl)amino)methyl)-4-phenyl-1,2,5-oxadiazole 2-oxide] | 74.8 | 97.4 | 86.6 | 82.4 | 76.2 | 81.3 | 83.2 | 46.6 | 84.2 | 82.7 | 51.4 | 47 | 48.5 | 71.1 | 55 | 68.3 | 57.5 | 96.1 | 31.9 | 75.8 | activity at 10 µM (HT29): 70.4%
2 | [O-][n+]1onc(-c2ccccc2)c1COc1ccc(Nc2ncnc3c2cnn3-c2ccc(Br)cc2)cc1 [6e, 3-((4-((1-(4-bromophenyl)-1H-pyrazolo[3,4-d]pyrimidin-4-yl)amino)phenoxy)methyl)-4-phenyl-1,2,5-oxadiazole 2-oxide] | 101 | 95.8 | 94.5 | 93.5 | 96.4 | 100 | 96.1 | 111 | 106 | 104 | 98.5 | 97 | 111 | 96.3 | 82.1 | 105 | 101 | 106 | 92.7 | 105 | enhancement of the growth percentage (mean) ([1]; full NCI-59 panel, 10 µM): 1–5%; activity at 10 µM (HT29): 94.5%
3 | O=c1[nH]c(CCl)nc2c1cnn2-c1ccccc1 [13a] | 94.2 | 94.1 | 95.7 | 98.5 | 99.8 | 100 | 109 | 101 | 96.6 | 106 | 87.5 | 105 | 103 | 100 | 97.6 | 125 | 110 | 105 | 94.9 | 114 | activity at 10 µM (HT29): 115%
